Measured values reported in EP1508334B1, “Water soluble extract from plant of solanum genus and the preparation process thereof, and pharmaceutical composition containing the water soluble extract” (G & E Herbal Biotechnology Co., Ltd., priority 2003, dated 2005).

Tests used:
Lymnaea cubensis = settings: cited from earlier work
Phoma medicaginis = settings: cited from earlier work
[1] = system: normal skin fibroblast cells; settings: cited from earlier work
Hep3B = settings: cited from earlier work
H441 = experiment: MTS tetrazolium salt cytotoxicity assay; type: cell-based, human; settings: different test concentrations / various dosages, 12 hrs, Fig. 8 and Fig. 12
Source text: In order to determine whether the water-soluble extract obtained from the plant of Solanum genus according to this invention has anti-cancer activity, the principal cancer cells of Hep3B, H441, and MCF-7 were used as analytic targets, in which Hep3B and H441 were purchased from American Type Culture Collection (ATCC, P.O. Box 1549, Manassas, VA 20108 USA), and MCF-7 was purchased from Food Industry Research and Development Institute (331 Shih-Pin Road, Hsinchu, 300 Taiwan R.O.C.).
Hep3B was incubated in Dulbecco's Modified Eagle's medium (DMEM), while H441 and MCF-7 were incubated in RPMI-1640, both of the media containing 10% fetal bovine serum and 40 mg/L gentamycin.
The cytotoxicity of cancer cells was determined using tetrazolium salt assay (MTS, Mosmann. T., 1983, Immmunol. Meth., 65, 55-63), which was conducted for the colorimetric determination of cell viability according to the manufacturer's procedures (CellTiter 96™ AQ, Promega, Madison, USA).
Cells were seeded at 1x10^4 cells/well in a 96-well plate and incubated in 5% CO2 incubator at 37°C for at least 16 hrs. […] Upon completion of the reaction, absorbency in each well was determined at 490 nm by using ELISA reader 312e, Bio-TEK. Each value was expressed as means ± SD from three experiments.
Cytotoxicity was determined by MTS tetrazolium salt assay disclosed in Pharmacological assay 1. […]

Trypanosoma cruzi = settings: cited from earlier work
JTC-26 = settings: cited from earlier work
[2] = Dissolution in water (applicant's observations); type: physicochemical; settings: for direct dissolution in water: compounds purified by HPLC from the water-soluble extract; for concentration at which precipitated: in water after being first dissolved in DMSO; for dissolution in water: without DMSO pre-treatment
Manduca sexta = settings: cited from earlier work
Biomphalaria glabrata = settings: cited from earlier work
Tribolium castaneum = settings: cited from earlier work
TNF receptor I = settings: cited from earlier work
[3] = system: human PLC/PRF/5 hepatoma cells; settings: cited from earlier work
Rhizoctomia solani = settings: cited from earlier work

Row | Structure (SMILES) | inhibiting growth of Lymnaea cubensis (Lymnaea cubensis) | inhibiting growth of Phoma medicaginis (Phoma medicaginis) | death of cells by apoptosis pathway [1] | death of cells by apoptosis pathway (Hep3B) | inhibiting the growth of H441 (H441) | inhibiting growth of Trypanosoma cruzi (Trypanosoma cruzi) | growth of JTC-26 (JTC-26) | direct dissolution in water [2] | concentration at which precipitated [2] | dissolution in water [2] | inhibiting growth of Manduca sexta (Manduca sexta) | inhibiting growth of Biomphalaria glabrata (Biomphalaria glabrata) | inhibiting growth of Tribolium castaneum (Tribolium castaneum) | gene expression of TNF receptor I (TNF receptor I) | growth of human PLC/PRF/5 hepatoma cells [3] | inhibiting growth of Rhizoctomia solani (Rhizoctomia solani)
1 | C[C@@H]1CC[C@@]2(NC1)O[C@H]1C[C@H]3[C@@H]4CC=C5C[C@@H](O[C@@H]6O[C@H](CO)[C@@H](O[C@@H]7O[C@@H](C)[C@H](O)[C@@H](O)[C@H]7O)[C@H](O)[C@H]6O[C@@H]6O[C@@H](C)[C@H](O)[C@@H](O)[C@H]6O)CC[C@]5(C)[C@H]4CC[C@]3(C)[C@H]1[C@@H]2C [solamargine] | capable of inhibiting growth | capable of inhibiting growth | increases death of cells | increases death of cells | effectively inhibited | capable of inhibiting growth | inhibits the growth | directly dissolved in water | more than 5 mg/ml | could not dissolve in water | capable of inhibiting growth | capable of inhibiting growth | capable of inhibiting growth | up-regulated | inhibits the growth | capable of inhibiting growth
2 | C[C@@H]1CC[C@@]2(NC1)O[C@H]1C[C@H]3[C@@H]4CC=C5C[C@@H](O[C@@H]6O[C@H](CO)[C@H](O)[C@H](O[C@@H]7O[C@H](CO)[C@@H](O)[C@H](O)[C@H]7O)[C@H]6O[C@@H]6O[C@@H](C)[C@H](O)[C@@H](O)[C@H]6O)CC[C@]5(C)[C@H]4CC[C@]3(C)[C@H]1[C@@H]2C [solasonine] | – | – | – | – | effectively inhibited | – | – | directly dissolved in water | more than 5 mg/ml | could not dissolve in water | – | – | – | – | – | –
